Data published in patent publication EP4763868A1, “RECOMBINANT PTH FUSION PROTEIN, CONSTRUCTION METHOD THEREFOR, AND APPLICATION THEREOF” (KANGZHONG (GUANGDONG) INC., priority 2024, dated 2025).

T1: PTHR1 on UMR-106 cells (UniProt P25961 27-591, limits assumed)
T1 sequence (looked up): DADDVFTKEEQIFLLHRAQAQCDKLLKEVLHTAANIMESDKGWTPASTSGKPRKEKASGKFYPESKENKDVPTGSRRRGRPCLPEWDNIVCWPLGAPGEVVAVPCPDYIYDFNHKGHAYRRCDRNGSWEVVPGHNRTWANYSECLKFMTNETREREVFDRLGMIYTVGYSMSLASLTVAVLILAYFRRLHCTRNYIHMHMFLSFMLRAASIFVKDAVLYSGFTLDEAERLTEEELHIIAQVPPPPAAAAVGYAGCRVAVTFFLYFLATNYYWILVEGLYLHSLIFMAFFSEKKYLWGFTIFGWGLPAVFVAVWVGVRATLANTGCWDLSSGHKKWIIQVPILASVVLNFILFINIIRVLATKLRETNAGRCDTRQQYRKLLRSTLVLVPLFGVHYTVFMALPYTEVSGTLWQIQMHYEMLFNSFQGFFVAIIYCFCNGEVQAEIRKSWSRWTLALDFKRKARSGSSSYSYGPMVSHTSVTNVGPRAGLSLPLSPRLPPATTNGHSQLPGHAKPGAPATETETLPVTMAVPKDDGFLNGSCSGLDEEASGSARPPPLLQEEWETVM


Columns and labels:
[1] = cited from earlier work
PTHR1 on UMR-106 cells = molecular target: T1, PTHR1 on UMR-106 cells; experiment: cell-based or functional assay

Molecule | EC50, biological activity (pGL4.29 reporter, fluorescence intensity) (PTHR1 on UMR-106 cells) | also measured
Transcon PTH(1-34): polyethylene glycol (PEG)-conjugated prodrug of PTH(1-34) by Ascendis Pharma A/S | – | time for which serum calcium is maintained at normal physiological levels ([1]; patients, after administration): ≤ 24 hours
CC[C@H](C)[C@H](NC(=O)[C@H](CCC(=O)O)NC(=O)[C@H](CO)NC(=O)[C@@H](NC(=O)[C@@H](N)CO)C(C)C)C(=O)N[C@@H](CCC(N)=O)C(=O)N[C@@H](CC(C)C)C(=O)N[C@@H](CCSC)C(=O)N[C@@H](Cc1cnc[nH]1)C(=O)N[C@@H](CC(N)=O)C(=O)N[C@@H](CC(C)C)C(=O)NCC(=O)N[C@@H](CCCCN)C(=O)N[C@@H](Cc1cnc[nH]1)C(=O)N[C@@H](CC(C)C)C(=O)N[C@@H](CC(N)=O)C(=O)N[C@@H](CO)C(=O)N[C@@H](CCSC)C(=O)N[C@@H](CCC(=O)O)C(=O)N[C@@H](CCCN=C(N)N)C(=O)N[C@H](C(=O)N[C@@H](CCC(=O)O)C(=O)N[C@@H](Cc1c[nH]c2ccccc12)C(=O)N[C@@H](CC(C)C)C(=O)N[C@@H](CCCN=C(N)N)C(=O)N[C@@H](CCCCN)C(=O)N[C@@H](CCCCN)C(=O)N[C@@H](CC(C)C)C(=O)N[C@@H](CCC(N)=O)C(=O)N[C@@H](CC(=O)O)C(=O)N[C@H](C(=O)N[C@@H](Cc1cnc[nH]1)C(=O)N[C@@H](CC(N)=O)C(=O)N[C@@H](Cc1ccccc1)C(=O)O)C(C)C)C(C)C [TP(PTH(1-34)), teriparatide] | – | half-life ([1]; human, in vivo): 30 min

Second part, led by results:

EC50, biological activity (pGL4.29 reporter, fluorescence intensity) (PTHR1 on UMR-106 cells) | Molecule | also measured
61.4 pM | triple-ECD-binding fusion protein T002G-K | –
0 pM | human serum albumin nanobody NbHSA (VHH) VHH: QVQLVESGGGLVQTGGSLRLSCAASGSTLVGHSVGFFRQAPGKEREPVVCISSTETVMYYTNSVKGRFTISRDNAKNTVWLQMDRLAPEDTAVYYCAARPQLCSALDYRYNSWGPGTQVTVSS | –
